# According to patent publication US20140271723A1 (priority 2013, published 2014):
# Experiments:
# [1] = tested on: lymphatic endothelial cell (LEC) monolayers; settings: cited from earlier work
# [2] = biological target: CRSBP-1 (Mus musculus, UniProt Q8BHC0); settings: cited from earlier work
# [3] = tested on: pseudorabies virus (PRV); parameters: species or system pigs; settings: pig, in vivo
# [4] = tested on: lymphatic intercellular junctions; settings: mouse, in vivo; cited from earlier work
# Sequence of CRSBP-1 (Q8BHC0 24-318): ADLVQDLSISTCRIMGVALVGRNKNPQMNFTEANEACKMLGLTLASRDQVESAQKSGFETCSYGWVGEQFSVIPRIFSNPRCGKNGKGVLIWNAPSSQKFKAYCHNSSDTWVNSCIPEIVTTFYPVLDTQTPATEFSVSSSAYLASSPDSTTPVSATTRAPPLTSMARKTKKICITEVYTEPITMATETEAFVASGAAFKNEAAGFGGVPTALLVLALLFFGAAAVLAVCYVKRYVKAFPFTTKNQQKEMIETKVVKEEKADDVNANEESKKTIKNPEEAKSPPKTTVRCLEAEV
Substance,disruption of VE-cadherin-mediated discontinuous intercellular adhesion and opening of intercellular junctions [1],binding to CRSBP-1 [2],increase in serum antibody titer as compared to vaccine only [3],activity in control experiments as compared to VEGF peptide and PDGF peptide [4]
KKSVRGKGKGQKRKRKKSRYKSWSV [VEGF peptide],induce disruption,high affinity,,
YVRVRRPPKGKHRKFKHTH [PDGF peptide],induce disruption,high affinity,~4 fold,
polyarginine,,,,very weak activity
polylysine,,,,very weak activity
